From the CheMixHub ionic liquid set
Several values for one entry are separate records, joined by “and”; a condition that tells them apart may be missing. Equal values may be shown once.

Assay: xn = mol fraction of the nth substance listed

CC(=O)[O-].CCCC[NH2+]CCO + CCCC[n+]1ccn(C)c1.COP(=O)([O-])OC
viscosity [mPa·s], 101 kPa
Conditions	x1 = 0.1014	x1 = 0.172	x1 = 0.2979	x1 = 0.4067	x1 = 0.4989	x1 = 0.6316	x1 = 0.7065	x1 = 0.8011	x1 = 0.8913	x1 = 1
278.15 K	–	–	–	–	–	–	–	–	–	6138
283.15 K	1725	1555	1328	1208	1161	1288	1457	1793	2360	3634
288.15 K	1103	997	855	781	751	825	930	1135	1475	2230
293.15 K	730	662	571	522	503	548	614	741	952	1412
298.15 K	499	454	392	360	346	375	417	499	633	921
303.15 K	351	319.8	277.3	254.3	244.8	263.1	290.6	344	431	617
308.15 K	253.2	231.1	200.9	184.2	177.2	189.1	207.4	243.2	301	423
313.15 K	186.8	170.8	148.7	136.5	131.1	138.9	151.3	175.7	214.8	297
318.15 K	140.7	128.9	112.4	103.1	98.9	104	112.6	129.5	156.5	212.7
323.15 K	108.1	99.1	86.6	79.4	76	79.4	85.4	97.2	116.1	155.3
328.15 K	84.5	77.6	67.8	62.2	59.4	61.6	65.9	74.2	87.7	115.3
333.15 K	67.08	61.68	53.98	49.43	47.16	48.5	51.57	57.6	67.3	87
338.15 K	54.05	49.76	43.58	39.88	37.96	38.75	40.98	45.33	52.4	66.7
343.15 K	44.14	40.69	35.65	32.6	30.96	31.37	33	36.18	41.36	51.9
348.15 K	36.5	33.69	29.51	26.96	25.56	25.71	26.9	29.24	33.08	40.87
353.15 K	30.53	28.22	24.71	22.56	21.33	21.31	22.18	23.9	26.78	32.6
358.15 K	25.8	23.88	20.91	19.07	17.99	17.86	18.48	19.75	21.91	26.29
363.15 K	22.02	20.4	17.86	16.27	15.31	15.1	15.55	16.48	18.11	21.43
368.15 K	18.97	17.58	15.4	14.01	13.15	12.89	13.21	13.89	15.12	17.63
373.15 K	16.47	15.28	13.38	12.15	11.38	11.09	11.3	11.8	12.72	14.64

CS(C)=O + CCCC[n+]1ccn(C)c1.F[B-](F)(F)F
100 kPa, x2 = 0
Conditions	electrical conductivity [S/m]	viscosity
298.15 K	0.042	1.99 mPa·s and 2.012 mPa·s
303.15 K	–	1.8 mPa·s
308.15 K	–	1.65 mPa·s
313.15 K	–	1.54 mPa·s

CC(=O)[O-].CCCC[NH2+]CCO + CCCC[n+]1ccn(C)c1.O=S(=O)([N-]S(=O)(=O)C(F)(F)F)C(F)(F)F
101 kPa
Conditions	viscosity [mPa·s]
283.15 K, x1 = 0.1012	127.4
283.15 K, x1 = 0.6987	1145
283.15 K, x1 = 0.8008	1850
283.15 K, x1 = 1	3634
288.15 K, x1 = 0.3002	164.2
288.15 K, x1 = 0.8008	1170
288.15 K, x1 = 0.901	1735
298.15 K, x1 = 0.2257	78.02
298.15 K, x1 = 0.8008	515
298.15 K, x1 = 0.901	731
298.15 K, x1 = 1	921
303.15 K, x1 = 0.4998	126.1
303.15 K, x1 = 0.8008	356
308.15 K, x1 = 0.3002	56.19
308.15 K, x1 = 1	423
313.15 K, x1 = 0.4998	73.4
313.15 K, x1 = 0.6987	130.9
313.15 K, x1 = 0.8008	182
313.15 K, x1 = 0.901	243.8
313.15 K, x1 = 1	297
318.15 K, x1 = 0.2257	32.2
318.15 K, x1 = 0.6987	98.5
318.15 K, x1 = 0.901	176.6
323.15 K, x1 = 0.6987	75.5
328.15 K, x1 = 0.2257	22.42
328.15 K, x1 = 0.6018	46.47
328.15 K, x1 = 0.901	98
338.15 K, x1 = 0.6987	37.11
343.15 K, x1 = 0.2257	14.05
343.15 K, x1 = 0.4998	20.65
343.15 K, x1 = 0.901	45.6
343.15 K, x1 = 1	51.9
348.15 K, x1 = 0.423	15.42
353.15 K, x1 = 0.901	29.26
353.15 K, x1 = 1	32.6
358.15 K, x1 = 0.3002	9.99
358.15 K, x1 = 0.423	11.46
358.15 K, x1 = 0.4998	12.68
363.15 K, x1 = 0.423	9.98
363.15 K, x1 = 1	21.43
368.15 K, x1 = 0.8008	14.29
368.15 K, x1 = 1	17.63
373.15 K, x1 = 0.3002	6.99
373.15 K, x1 = 0.423	7.73
373.15 K, x1 = 0.4998	8.35
373.15 K, x1 = 1	14.64

CCCCCCCCCCCCCC[P+](CCCCCC)(CCCCCC)CCCCCC.[c-]1c[nH]nn1 + CCCC[n+]1ccn(C)c1.O=S(=O)([N-]S(=O)(=O)C(F)(F)F)C(F)(F)F
100 kPa
Conditions	viscosity [mPa·s]
278.15 K, x2 = 0.2	2422
283.15 K, x2 = 0.1	1490
283.15 K, x2 = 0.722	481
293.15 K, x2 = 0.301	663
298.15 K, x2 = 0.1	486
298.15 K, x2 = 0.388	428
298.15 K, x2 = 0.9	77
303.15 K, x2 = 0.1	353
303.15 K, x2 = 0.301	339
308.15 K, x2 = 0.2	273
313.15 K, x2 = 0.2	205
313.15 K, x2 = 0.388	174
318.15 K, x2 = 0.2	158
318.15 K, x2 = 0.301	147
318.15 K, x2 = 0.8	50
323.15 K, x2 = 0.301	115

CS(C)=O + CCCC[n+]1ccn(C)c1.O=S(=O)([N-]S(=O)(=O)C(F)(F)F)C(F)(F)F
100 kPa
Conditions	electrical conductivity [S/m]	viscosity [mPa·s]
294.5 K, x2 = 0.02028	0.45	–
298.15 K, x1 = 0.5903	–	13.22
303.15 K, x1 = 0.2885	–	23.78
303.15 K, x1 = 0.5026	–	13.9
308.15 K, x1 = 0.5903	–	9.52
308.15 K, x1 = 1	–	1.67
313.15 K, x1 = 0.0951	–	23.09
313.15 K, x1 = 0.2074	–	19.57
313.15 K, x1 = 0.5903	–	8.39
313.15 K, x1 = 1	–	1.53
323.15 K, x1 = 0.9012	–	2.15

N#CCCCCC#N + CCCC[n+]1ccn(C)c1.O=S(=O)([N-]S(=O)(=O)C(F)(F)F)C(F)(F)F
Conditions	electrical conductivity [S/m]
294.5 K, 100 kPa, x2 = 0.02785	0.29

CS(C)=O + CCCC[n+]1ccn(C)c1.O=S(=O)([O-])C(F)(F)F
100 kPa, x2 = 0
Conditions	viscosity [mPa·s]
298.15 K	2.03
303.15 K	1.84
308.15 K	1.67
313.15 K	1.53
318.15 K	1.41
323.15 K	1.3

C[NH2+]CCC=C1c2ccccc2CCc2ccccc21.[Cl-] + CCCC[n+]1ccn(C)c1.[Br-] + O
viscosity [mPa·s], 100 kPa
Conditions	288.15 K	298.15 K	308.15 K	318.15 K
x1 = 0.0001975, x2 = 0.0001801	1.159	0.927	0.763	0.646
x1 = 0.0002159, x2 = 0.00126	1.172	0.944	0.778	0.661
x1 = 0.0002212, x2 = 0.0007201	1.165	0.934	0.77	0.654
x1 = 0.0005439, x2 = 0.0001801	1.169	0.936	0.771	0.655
x1 = 0.0005594, x2 = 0.001259	1.182	0.953	0.787	0.671
x1 = 0.0005644, x2 = 0.0007199	1.176	0.943	0.779	0.664
x1 = 0.0009069, x2 = 0.0007196	1.187	0.952	0.788	0.674
x1 = 0.0009097, x2 = 0.00018	1.18	0.946	0.78	0.664
x1 = 0.0009344, x2 = 0.001259	1.193	0.963	0.796	0.68
x1 = 0.001275, x2 = 0.001258	1.204	0.973	0.805	0.689
x1 = 0.001278, x2 = 0.0001799	1.192	0.956	0.789	0.673
x1 = 0.001293, x2 = 0.0007194	1.199	0.961	0.797	0.682
x1 = 0.001648, x2 = 0.0007191	1.211	0.971	0.806	0.691
x1 = 0.001659, x2 = 0.0001799	1.204	0.967	0.798	0.681
x1 = 0.001665, x2 = 0.001258	1.216	0.984	0.814	0.698
x1 = 0.002, x2 = 0.0001798	1.217	0.978	0.807	0.689
x1 = 0.002031, x2 = 0.0007188	1.224	0.982	0.815	0.699
x1 = 0.002035, x2 = 0.001257	1.229	0.995	0.823	0.707
x1 = 0.002363, x2 = 0.0001797	1.23	0.989	0.816	0.697
x1 = 0.002378, x2 = 0.001257	1.243	1.006	0.832	0.715
x1 = 0.002383, x2 = 0.0007186	1.237	0.993	0.824	0.707
x1 = 0.002737, x2 = 0.0001797	1.244	1	0.826	0.705
x1 = 0.00275, x2 = 0.001256	1.257	1.018	0.842	0.723
x1 = 0.002759, x2 = 0.0007183	1.251	1.005	0.834	0.715
x1 = 0.003096, x2 = 0.001256	1.272	1.03	0.853	0.731
x1 = 0.003103, x2 = 0.0001796	1.258	1.012	0.836	0.713
x1 = 0.00311, x2 = 0.000718	1.265	1.019	0.845	0.723
x1 = 0.003471, x2 = 0.0001795	1.273	1.024	0.847	0.721
x1 = 0.003493, x2 = 0.001255	1.287	1.043	0.864	0.738
x1 = 0.003504, x2 = 0.0007178	1.28	1.033	0.856	0.731

CCC(=O)[O-].C[N+](C)(C)CCO + CCCO + O
100 kPa, x1 = 0.00408, x2 = 0.5431
Conditions	viscosity [mPa·s]
288.15 K	3.537
298.15 K	2.571
308.15 K	1.931

CCCC[n+]1ccn(C)c1.[Br-] + CCCOCCO
viscosity [mPa·s], 100 kPa
Conditions	x1 = 0.1001	x1 = 0.2003	x1 = 0.2994	x1 = 0.4	x1 = 0.5002	x1 = 0.6002	x1 = 0.701	x1 = 0.7969	x1 = 0.9003	x1 = 1
298.15 K	15.5	50	100	152	204	270	378	560	910	1451
303.15 K	10.3	28.9	53.7	81.1	110	148	206	305	503	837
308.15 K	7.54	19.1	35.1	52	69.9	92.1	126	180	293	506
313.15 K	6	14.5	25.9	37	48.8	61.7	81.8	114	184	330

CS(C)=O + CCC[N+]1(C)CCCC1.O=S(=O)([N-]S(=O)(=O)C(F)(F)F)C(F)(F)F
101 kPa, x2 = 0
Conditions	viscosity [mPa·s]
298.15 K	2.118
308.15 K	1.758
318.15 K	1.489
328.15 K	1.28
338.15 K	1.116
348.15 K	0.983
358.15 K	0.874

COS(=O)(=O)[O-].Cn1cc[n+](C)c1 + CCO
Conditions	viscosity [mPa·s]
328.15 K, 100 kPa, x2 = 0.945	0.96
